# In ChEMBL document CHEMBL1201862, “PubChem BioAssay data set” (2004):
# Where a name gives a salt, the structure may show the parent alone. Activity calls are given as the source filed them.
# Columns and labels:
# [1] = Luminescence Cell-Based Dose Confirmation HTS to Identify Activators of 5'UTR Stem-Loop Driven Alpha-Synuclein mRNA Translation in H4 Neuroglioblastoma Cells. [Related pubchem assays: 1829 (Project Summary), 1814 (Primary HTS)]; format: functional
# H4 = test: Luminescence Cell-Based Dose Response HTS to Identify Activators of 5'UTR Stem-Loop Driven Prion Protein mRNA Translation in H4 Neuroglioblastoma Cells. [Related pubchem assays: 1829 (Project Summary), 1814 (Primary HTS)]; format: functional; settings: Homo sapiens
# [2] = HPDE-C7 pancreatic duct cell viability loss – fluorescence, HTS (AID 430); format: functional, cell-based; settings: Homo sapiens
# [3] = viability loss of HPDE-C7K cells – cell-based, fluorescence, HTS, primary screen (AID 431); format: functional; settings: Homo sapiens
# [4] = viability of PTEN-deleted HCT116 cells – cell-based, HCT116 PTEN knockout, dose response (AID 1047); format: functional;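 further: HCT116 colon tumor cells with PTEN knocked out; cells exposed to compound for 60 hours before readout; potency for loss of cell viability measured by luminescence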
# [5] = viability of HCT116 lacking mutant beta-catenin – cell-based, human colon tumor, dose response (AID 1045); format: functional;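 further: HCT116 colon tumor cells with beta catenin knocked out; cells exposed to compound for 60 hours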
# [6] = THP-1 cell cytotoxicity, dose response, cytotoxicity control for non-replicating M. tuberculosis project (AID 489025); format: functional
# [7] = Vero E6 cell cytotoxicity, dose response, cytotoxicity control for non-replicating M. tuberculosis project, secondary assay (AID 492998); format: functional, VeroE6; settings: Vero C1008
# Nonstructural protein 1 = Nonstructural protein 1 (Influenza A virus, UniProt Q194T2); format: functional, Influenza A virus (A/California/07/2009(H1N1))
# Sequence of Nonstructural protein 1 (Q194T2 whole entry): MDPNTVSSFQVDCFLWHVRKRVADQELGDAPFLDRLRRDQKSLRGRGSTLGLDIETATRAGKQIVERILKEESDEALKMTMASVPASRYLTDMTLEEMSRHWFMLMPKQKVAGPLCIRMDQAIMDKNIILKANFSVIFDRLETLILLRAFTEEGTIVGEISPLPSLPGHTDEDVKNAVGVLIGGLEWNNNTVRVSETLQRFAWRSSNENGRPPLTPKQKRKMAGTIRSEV
# cells [8] = format: functional
# [9] = target: T1, Sentrin-specific protease 8 (Homo sapiens, UniProt Q96LD8); format: functional
# T1 sequence (Q96LD8 whole entry): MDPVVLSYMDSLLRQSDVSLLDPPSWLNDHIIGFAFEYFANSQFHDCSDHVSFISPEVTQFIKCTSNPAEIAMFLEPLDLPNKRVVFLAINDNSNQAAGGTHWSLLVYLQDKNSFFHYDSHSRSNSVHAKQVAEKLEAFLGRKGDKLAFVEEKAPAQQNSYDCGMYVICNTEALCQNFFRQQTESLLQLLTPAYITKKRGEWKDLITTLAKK
# [10] = target: T1, Sentrin-specific protease 8; format: functional; remark: listed apart in the source
# Fibrinogen beta chain [11] = target: T2, Fibrinogen beta chain (Homo sapiens, UniProt P02675); test: Fluorescence polarization-based biochemical high throughput dose response assay to identify inhibitors that disrupt the binding of a cyclic peptide (Tn6) to the fibrin proteolytic product D-Dimer and fragment E complex [DD(E )].
# T2 sequence (P02675 whole entry, the tested form may be a part): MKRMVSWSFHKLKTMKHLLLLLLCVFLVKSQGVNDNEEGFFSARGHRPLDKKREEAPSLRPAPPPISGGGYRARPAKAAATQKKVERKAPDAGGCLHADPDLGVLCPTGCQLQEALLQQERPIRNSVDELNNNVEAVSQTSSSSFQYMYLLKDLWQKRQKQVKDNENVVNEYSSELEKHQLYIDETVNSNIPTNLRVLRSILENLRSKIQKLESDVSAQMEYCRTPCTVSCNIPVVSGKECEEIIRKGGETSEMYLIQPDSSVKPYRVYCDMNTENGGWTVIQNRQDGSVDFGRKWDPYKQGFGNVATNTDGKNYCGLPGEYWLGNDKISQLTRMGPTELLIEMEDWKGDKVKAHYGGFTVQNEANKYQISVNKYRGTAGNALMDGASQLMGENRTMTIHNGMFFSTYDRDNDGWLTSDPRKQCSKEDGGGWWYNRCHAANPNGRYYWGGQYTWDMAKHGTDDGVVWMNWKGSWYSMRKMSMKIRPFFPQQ
# Fibrinogen beta chain [12] = target: T2, Fibrinogen beta chain; test: Fluorescence polarization-based biochemical high throughput dose response assay to identify inhibitors that disrupt the binding of a cyclic peptide (Tn7) to the fibrin proteolytic product D-Dimer and fragment E complex [DD(E )].
# [13] = target: NAD-dependent protein deacylase sirtuin-5, mitochondrial (Homo sapiens, UniProt Q9NXA8); test: sirtuin-5 deacylation blockers, concentration series – biochemical, fluorescence imaging, cherry-pick, set 5, dose response (AID 720591);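 further: desuccinylation of succinyl peptide AMC substrate read as fluorescence after trypsin release; potency of inhibitors that lower fluorescence and may act on trypsin instead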
# Sequence of NAD-dependent protein deacylase sirtuin-5, mitochondrial (Q9NXA8 whole entry): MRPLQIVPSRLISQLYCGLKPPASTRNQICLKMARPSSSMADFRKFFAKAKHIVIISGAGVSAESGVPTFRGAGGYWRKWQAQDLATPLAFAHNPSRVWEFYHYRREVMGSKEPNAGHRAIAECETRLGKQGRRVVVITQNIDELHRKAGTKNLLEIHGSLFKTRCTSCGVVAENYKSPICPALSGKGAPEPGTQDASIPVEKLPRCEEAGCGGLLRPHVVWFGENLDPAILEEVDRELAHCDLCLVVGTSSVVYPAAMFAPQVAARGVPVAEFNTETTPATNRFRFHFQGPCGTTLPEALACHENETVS
# Paired box protein Pax-8 = Paired box protein Pax-8 (Homo sapiens, UniProt Q06710); test: PAX8 transcriptional activity inhibition in RMG-I – RMG-I cells, luciferase, cherry-pick, dose response (AID 687027); format: functional, cell-based;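 further: luciferase reporter driven by Pax8 target thyroperoxidase promoter measured by SteadyGlo luminescence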
# Sequence of Paired box protein Pax-8 (Q06710 whole entry): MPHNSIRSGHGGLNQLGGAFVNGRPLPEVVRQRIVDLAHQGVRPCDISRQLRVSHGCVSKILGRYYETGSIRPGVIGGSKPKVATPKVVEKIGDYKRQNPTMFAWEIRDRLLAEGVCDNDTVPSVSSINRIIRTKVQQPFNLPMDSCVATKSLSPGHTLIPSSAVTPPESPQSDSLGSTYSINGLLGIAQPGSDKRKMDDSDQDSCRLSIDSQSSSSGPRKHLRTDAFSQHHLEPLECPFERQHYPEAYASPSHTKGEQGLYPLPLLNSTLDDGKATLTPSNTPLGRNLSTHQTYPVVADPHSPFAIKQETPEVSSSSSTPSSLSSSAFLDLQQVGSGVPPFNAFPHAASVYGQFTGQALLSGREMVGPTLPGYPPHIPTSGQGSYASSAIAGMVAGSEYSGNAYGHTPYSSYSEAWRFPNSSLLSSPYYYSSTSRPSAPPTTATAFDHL
# [14] = inhibitors acting on PAX2 in cells – cell-based, plate reader, dry powder samples, selectivity assay for PAX8 inhibitor project, dose response (AID 743048); format: functional;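 further: HEK293 cells carrying a WT1 promoter luciferase reporter driven by expressed Pax2; potency is for inhibition of Pax2 driven reporter signal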
# [15] = COV362 cell viability loss – plate reader, dry powder, SA12, cytotoxicity control for PAX8 inhibitor project, dose response (AID 743144); format: functional, cell-based
# [16] = OVCAR-3 cell viability loss – plate reader, dry powder samples, PAX8 inhibitor project, dose response (AID 743044); format: functional, cell-based
# [17] = PAX5 cellular inhibition readout – cell-based, plate reader, dry powder samples, selectivity assay for PAX8 inhibitor project, dose response (AID 743047); format: functional;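 further: HEK293 cells carrying a Pax5 driven CD19 promoter luciferase reporter; potency of inhibitors that lower reporter luminescence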
# [18] = OVCAR4 cell viability loss – plate reader, dry powder, SA11, cytotoxicity control for PAX8 inhibitor project, dose response (AID 743150); format: functional, cell-based; settings: OVCAR-4
# [19] = COV434 cell viability loss – plate reader, dry powder, SA7, cytotoxicity control for PAX8 inhibitor project, dose response (AID 743145); format: functional, cell-based
# [20] = OV-90 cell viability loss – plate reader, dry powder, SA8, PAX8 inhibitor project, dose response (AID 743149); format: functional, cell-based
# [21] = PAX8-dependent cell viability loss – plate reader, dry powder, dose response (AID 743049); format: functional, cell-based
# [22] = target: G-protein coupled receptor 183 (Homo sapiens, UniProt P32249); test: SAR confirmation of small molecule antagonists of the EBI2 receptor via a luminescent beta-arrestin assa.; format: functional
# Sequence of G-protein coupled receptor 183 (P32249 whole entry): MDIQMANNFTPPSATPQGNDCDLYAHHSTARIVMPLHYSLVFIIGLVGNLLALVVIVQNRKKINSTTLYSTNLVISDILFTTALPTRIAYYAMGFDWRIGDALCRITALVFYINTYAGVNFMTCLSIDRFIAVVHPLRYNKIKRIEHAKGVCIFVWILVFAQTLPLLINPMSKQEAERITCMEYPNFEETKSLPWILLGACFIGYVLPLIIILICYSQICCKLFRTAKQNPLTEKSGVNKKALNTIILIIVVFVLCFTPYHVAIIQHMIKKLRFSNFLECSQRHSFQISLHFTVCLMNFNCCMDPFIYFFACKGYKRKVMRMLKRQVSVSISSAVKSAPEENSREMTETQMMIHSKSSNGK
# [23] = rise of 2N DNA cells, HeLa – IC50, dose response (AID 1117349); format: functional, cell-based
# [24] = CellTiter-Glo luminescence survival assay, SW480 colon tumor line, concentration-response curve, half-maximal inhibitory concentration (AID 1117338); format: functional
# [25] = IC50 of insulin release inhibition, rat insulinoma INS-1E line, 5 mM glucose, cell-based (AID 1117331); format: functional
# [26] = RKO cell viability reduction, dose response, CellTiter-Glo luminescence (AID 1117322); format: functional
# [27] = SNU-C1 cell viability reduction, dose response, CellTiter-Glo luminescence (AID 1117323); format: functional, cell-based
# cells [28] = format: functional, cell-based; settings: INS-1E
# [29] = rise of 4N DNA cells, HeLa – IC50, dose response (AID 1117351); format: functional, cell-based
# [30] = HCT116 cell viability decrease, GSK3B pretreatment – CellTiter-Glo, IC50, dose response (AID 1117339); format: functional; settings: HCT-116
compound,measurement,setting,value
N#CC(C#N)=c1ccc2c(c1)NC1(CCCCC1)N=2,EC50,[1],1.55 µM (active)
same,EC50,H4,5.95 µM (active)
same,EC50,[2],6.5 µM (active)
same,EC50,[3],9.91 µM (active)
same,EC50,[4],1.37 µM (active)
same,EC50,[5],1.23 µM (active)
same,CC50,[6],6.67 µM (active)
same,CC50,[7],15.4 µM (active)
same,IC50,Nonstructural protein 1,15.6 µM (active)
same,IC50,cells [8],10.7 µM (active)
same,IC50,[9],> 100 µM (inactive)
same,IC50,[10],3.45 µM (active)
same,IC50,Fibrinogen beta chain [11],11.3 µM (inactive)
same,IC50,Fibrinogen beta chain [12],> 83.3 µM (inactive)
C=CCN(c1ccccc1)S(=O)(=O)c1cccc(C(=O)Nc2ccncc2)c1,AC50,[13],> 30 µM (inactive)
COc1ccc(NC(=O)Nc2ccc3c(c2)C(=O)N([C@H](C)CO)C[C@H](C)[C@H](CN(C)Cc2ccc(C(F)(F)F)cc2)OCCCC[C@H](C)O3)cc1,AC50,Paired box protein Pax-8,9.32 µM (active)
same,AC50,[14],18.4 µM (active)
same,AC50,[15],26 µM (active)
same,AC50,[16],24 µM (active)
same,AC50,[17],22.9 µM (active)
same,AC50,[18],20.4 µM (active)
same,AC50,[19],27.7 µM (active)
same,AC50,[20],23.6 µM (active)
same,AC50,[21],22.4 µM (active)
O=C(/C=C/c1ccc(F)cc1)N1CCN(S(=O)(=O)CCc2ccccc2)CC1,IC50,[22],0.00327 µM (active)
CCN(CC)CCCC(C)Nc1c2ccc(Cl)cc2nc2ccc(OC)cc12 (stereo not drawn) [QUINACRINE HYDROCHLORIDE],IC50,[23],2.16 µM (active)
same,IC50,[24],3.6 µM (active)
same,IC50,[25],4.07 µM (active)
same,IC50,[26],3.42 µM (active)
same,IC50,[27],3.84 µM (active)
same,IC50,cells [28],> 33.3 µM (inactive)
same,IC50,[29],> 10 µM (inactive)
same,IC50,[30],4.48 µM (active)
